Molecules are shown by their SMILES. Values after ≈ are worked out from the molar mass of the structure shown. A value given as a limit tells only on which side of the number the result lay.

The test system of series [1] is Pseudomonas aeruginosa 12. As to the kind of experiment: In vivo efficacy against systemic infections in mice. Particulars: Pseudomonas aeruginosa, 12, 168 h, oral, intraperitoneal infection about 5×10^3 cells, 4% mucin, twice, immediately and 6 h after infection, 7 days, calculated for free base, read-out: median effective dose (ED50). Details: species or system Pseudomonas aeruginosa; male mice (ddY-S). On the procedure:
Compounds were each dissolved in deionized water. Each of the solutions was orally administered to mice infected with each of the test organisms under the conditions shown hereinbelow, and the median effective dose (ED50) was calculated by probit analysis. The numerals in the table show ED50 (mg/kg) value, calculated for free base.
Mice: Male mice (ddY-S) weighing about 20 g
Pseudomonas aeruginosa 12
Intraperitoneal infection with about 5×10^3 cells per mouse suspended in tryptosoy broth with 4% mucin.
Four times, immediately, 6, 24 and 30 hours after infection in case of Streptococcus pneumoniae 1 Neufeld. Twice, immediately and 6 hours after infection in case of other organisms.
For 14 days in case of Staphylococcus aureus 50774 and Streptocuccus pneumoniae 1 Neufeld. For 7 days in case of other organisms.

The next series concerns M. hyorhinis BST-7. The series is described as follows: Anti-Mycoplasma activity, twofold agar-dilution method. Format: cell-based. The note with it: Mesomycoplasma hyorhinis, BST7, 72 h, Chanock agar, 37° C., 3 days aerobically, calculated for free base, read-out: minimum inhibitory concentration (MIC). As for the experimental part: (§1) The numbers in the table show minimum inhibitory concentrations (MIC) (μg/ml), calculated for free base. The minimum inhibitory concentration was determined by the twofold agar-dilution method using Chanock agar. Three μl of a culture of test organisms in Chanock broth was inoculated onto 10-ml drug-containing agar layers in petri dishes. Growth of Mycoplasma was observed after incubation at 37° C. under the conditions shown hereinbelow. The MIC was defined as the lowest drug concentration which prevented growth of Mycoplasma microscopically.

The test system of another series is M. pneumoniae Mac. Described as above. It is filed as cell-based. The note with it: Mycoplasmoides pneumoniae, 168 h, Chanock agar, 37° C., 7 days aerobically, calculated for free base, read-out: minimum inhibitory concentration (MIC). On the procedure: as §1
The next series deals with M. fermentans PG-18. Described as above. Format: cell-based. The note with it: Mycoplasmopsis fermentans, PG18, 48 h, Chanock agar, 37° C., 2 days anaerobically, calculated for free base, read-out: minimum inhibitory concentration (MIC). As for the experimental part:
as §1

Another series deals with M. orale CH-19299. Described as above. The note with it: 48 h, Chanock agar, 37° C., 2 days anaerobically, calculated for free base, read-out: minimum inhibitory concentration (MIC). Format: cell-based. On the procedure: as §1
In another series the test system is M. buccale CH-20247. The description is as above. The note with it: 48 h, Chanock agar, 37° C., 2 days anaerobically, calculated for free base, read-out: minimum inhibitory concentration (MIC). It is filed as cell-based. On the procedure: as §1
In a further series the test system is M. hominis PG-21. The description is as above. Format: cell-based. Particulars: Metamycoplasma hominis, PG21, 48 h, Chanock agar, 37° C., 2 days anaerobically, calculated for free base, read-out: minimum inhibitory concentration (MIC). On the procedure: as §1
The next series concerns M. salivarium. The series is described as above. Format: cell-based. Particulars: 48 h, read-out: minimum inhibitory concentration (MIC). As for the experimental part:
as §1

The next series relates to S. aureus 209P JC-1. As to the kind of experiment: In vitro antibacterial activity, twofold agar-dilution method. Format: cell-based. Particulars: Staphylococcus aureus; S. aureus 209P JC-1 (Gram +); Mueller-Hinton agar, 20 h, 37° C.; calculated for free base; read-out: minimum inhibitory concentration (MIC). As for the experimental part: (§2) The numbers in the table show minimum inhibitory concentrations (MIC) (μg/ml), calculated for free base. The minimum inhibitory concentration was determined by the twofold agar-dilution method, which was recommended by Japan Society of Chemotherapy (Chemotherapy, 29(1), 76(1981)), using Muller-Hinton agar. One loopful of an overnight culture of test organisms in Mueller-Hinton broth was inoculated onto 10-ml drug-containing agar layers in petri dishes. Bacterial inocula contained approximately 10^6 colonyl-formingunits. Bacterial growth was observed after 20-hour incubation at 37° C. The MIC was defined as the lowest drug concentration which prevented visible bacterial growth.

The next series has as its system Ac. calcoaceticus P-6901. Described as above. Particulars: Acinetobacter calcoaceticus, P6901; Ac. calcoaceticus P-6901 (Gram -); Mueller-Hinton agar, 20 h, 37° C.; calculated for free base; read-out: minimum inhibitory concentration (MIC). It is filed as cell-based. On the procedure:
as §2

A further series has as its system S. epidermidis No. 8. The series is described as above. Format: cell-based. The note with it: Staphylococcus epidermidis; S. epidermidis No. 8 (Gram +); Mueller-Hinton agar, 20 h, 37° C.; calculated for free base; read-out: minimum inhibitory concentration (MIC). On the procedure:
as §2

The test system of the next series is P. aeruginosa No. 12. Described as above. It is filed as cell-based. Particulars: Pseudomonas aeruginosa; P. aeruginosa No. 12 (Gram -); Mueller-Hinton agar, 20 h, 37° C.; calculated for free base; read-out: minimum inhibitory concentration (MIC). On the procedure: as §2
A further series concerns S. aureus No. 50774. The series is described as above. The note with it: Staphylococcus aureus; S. aureus No. 50774 (Gram +); Mueller-Hinton agar, 20 h, 37° C.; calculated for free base; read-out: minimum inhibitory concentration (MIC). It is filed as cell-based. On the procedure: as §2
A further series relates to E. coli P-51213. The series is described as above. Format: cell-based. Particulars: Escherichia coli, P51213; E. coli P-51213 (Gram -); Mueller-Hinton agar, 20 h, 37° C.; calculated for free base; read-out: minimum inhibitory concentration (MIC). On the procedure:
as §2

Another series has as its system B. subtilis PCI 219. Described as above. It is filed as cell-based. Particulars: Bacillus subtilis, PCI219; B. subtilis PCI 219 (Gram +); Mueller-Hinton agar, 20 h, 37° C.; calculated for free base; read-out: minimum inhibitory concentration (MIC). As for the experimental part: as §2
Another series deals with S. aureus No. 80. The description is as above. It is filed as cell-based. The note with it: Staphylococcus aureus; S. aureus No. 80 (Gram +); Mueller-Hinton agar, 20 h, 37° C.; calculated for free base; read-out: minimum inhibitory concentration (MIC). As for the experimental part: as §2
The next series relates to Al. faecalis P-7001. Described as above. Particulars: Alcaligenes faecalis, P7001; Al. faecalis P-7001 (Gram -); Mueller-Hinton agar, 20 h, 37° C.; calculated for free base; read-out: minimum inhibitory concentration (MIC). It is filed as cell-based. On the procedure: as §2
A short description of series [2]: Acute oral toxicity in mice. The note with it: mouse, in vivo, po. On the procedure: (§3) A solution containing each of compounds 1, 2 and 3 of this invention in various concentrations was orally given to male mice (ddY) at a dose of 0.1 ml per 10 g of body weight. The number of dead mice was counted after 7 days, and the value of median lethal dose (LD50, mg/kg) was calculated in accordance with the Behrens-Kaerber method.

For another series, the system named is male mice (ddY). The series is described as follows: Acute oral toxicity in mice. The note with it: conclusion in words from Table 5. As for the experimental part:
as §3

As for `CC1CN(c2c(F)c(N)c3c(=O)c(C(=O)O)cn(C4CC4)c3c2F)CCN1` (stereo not shown) [Compound 1, 5-Amino-1-cyclopropyl-6,8-difluoro-7-(3-methyl-1-piperazinyl)-1,4-dihydro-4-oxoquinoline-3-carboxylic acid], the ED50 (in general, the midpoint of the dose-response relation) in series [1] is 1.11 mg/kg. The MIC with M. hyorhinis BST-7 is 0.2 µg/mL (≈ 0.529 µM); with M. pneumoniae Mac, 0.025 µg/mL (≈ 0.0661 µM); with M. fermentans PG-18, 0.0063 µg/mL (≈ 0.0166 µM); with M. orale CH-19299 it was 0.2 µg/mL (≈ 0.529 µM); with M. buccale CH-20247 it was 0.0125 µg/mL (≈ 0.033 µM); in the series on M. hominis PG-21, 0.05 µg/mL (≈ 0.132 µM). Besides, the MIC with M. salivarium was 0.2 µg/mL (≈ 0.529 µM); with S. aureus 209P JC-1, 0.025 µg/mL (≈ 0.0661 µM); in the series with Ac. calcoaceticus P-6901 it was 0.0125 µg/mL (≈ 0.033 µM); with S. epidermidis No. 8 it was 0.025 µg/mL (≈ 0.0661 µM); in the series on P. aeruginosa No. 12 it was 0.1 µg/mL (≈ 0.264 µM); with S. aureus No. 50774, 0.0125 µg/mL (≈ 0.033 µM). Further, the MIC was 0.025 µg/mL (≈ 0.0661 µM) in the series on E. coli P-51213, 0.05 µg/mL (≈ 0.132 µM) in the series on B. subtilis PCI 219, 0.0125 µg/mL (≈ 0.033 µM) in the series on S. aureus No. 80 and 0.1 µg/mL (≈ 0.264 µM) in the series with Al. faecalis P-7001. In addition, in series [2], the LD50 (as a rule, the dose expected to kill half of the subjects tested) at 168 h is greater than 2000 mg/kg. The oral toxicity result with male mice (ddY) is recorded as “low oral toxicity”.

Source of the values: patent US4795751A, “5-substituted-6,8-difluoroquinolines useful as antibacterial agents” (Dainippon Pharmaceutical Co., Ltd., priority 1985, dated 1989).
